From patent publication US11873295B2, “Allosteric chromenone inhibitors of phosphoinositide 3-kinase (PI3K) for the treatment of disease” (Petra Pharma Corporation, priority 2021, dated 2024) come the findings set out here.

For assay [1], the target named is T1, human full length PIK3KA Wild-type (p110α/p85α complex) (Homo sapiens, UniProt P42336).
T1 construct: Recombinant, catalytically active human full length PIK3KA Wild-type and H1047R mutant were purchased as 1:1 complex; 6xHis (N); purchased EMD Millipore Sigma 14-602M
As to the kind of experiment: PI3K-alpha kinase (PIK3CA) biochemical activity, wild-type, ADP-Glo. Conditions: PI3K-α (PIK3CA) biochemical. The source says:
(§1) PI3K-Alpha Kinase (PIK3CA) Activity, Wild-Type and H1047R Mutant and Determining IC50 Values for Inhibitors
(§2) Recombinant, catalytically active human full length PIK3KA Wild-type and H1047R mutant were purchased as 1:1 complex of N-terminal 6× his tagged p110α (catalytic) and untagged p85α (regulatory subunit) from EMD Millipore Sigma (cat. no. 14-602M and 14-792M, respectively). PIP2diC8 (Avanti Polar Lipids Inc., cat. no. 850185) or Soy PI (Avanti Polar Lipids Inc., cat. No. 840044P) was used as lipid substrate. PIP2diC8 or PI lyophilized powder was dissolved in milliQ water to a concentration of 1 mM just before use. 10 mM stock compounds in DMSO were serially diluted 1:3 to generate a 10-point curve and plated using an acoustic liquid handler system (Echo 550 series instrument, Labcyte). A 10× intermediate compound plate (200 uM starting compound concentration and 10% DMSO) was prepared before starting the reaction. A typical reaction mixture (50 uL) comprised 40 mM HEPES buffer, pH 7.4, 25 mM MgCl2, 0.01% v/v triton-X-100, 1% v/v DMSO, 20 mM NaCl, 1-5 nM WT or H1047R PI3K protein, 20 uM ATP, and 50 uM PIP2diC8 or Soy PI. 1% DMSO buffer alone without test compound was employed as MAX control (full activity in the absence of any inhibitor), and no enzyme control was used to determine the level of background Adenosine 5′-diphosphate (ADP) (MIN control). First, Wild-type (WT) and H1047R mutant protein in kinase buffer with all components except ATP were incubated with or without compound at 27° C. for 1 h. After the pre-incubation, the reaction was initiated by the addition of 20 uL of 50 uM ATP (20 uM final concentration). The reaction was allowed to proceed until about 10% conversion of ATP (2 uM ADP) at 27° C. After that time, 5 uL of reaction was mixed with 5 uL of ADP-Kinase Glo Reagent (ADP-Glo Kinase assay kit, Promega cat. no. V9102) supplemented with MgCl2 10 mM to stop the reaction and deplete the remaining ATP for 40 min at room temperature. Then, 10 uL of Kinase Detection Reagent (ADP-Glo Kinase assay kit, Promega cat. no. V9102) was added to simultaneously convert ADP to ATP and allow the newly synthesized ATP to be measured using a luciferase/luciferin reaction. After 30 min at room temperature the light generated was measured using a luminometer (EnVision plate reader, Perkin Elmer). Process data through Genedata-Screener tool. Relative IC50 values are determined using luminescence units by calculating percent inhibition with respect to on-plate “MIN” and “MAX” controls. Data was analyzed using a 4-parameter nonlinear logistic equation (four-parameter logistic concentration-response curve): Y=bot+[(top−bot)/1+(x/IC50)slope] where Y=% inhibition, X=concentration yielding y % inhibition, Bottom=minimum value of y attained by curve, Top=maximum value of y attained by curve and Slope=steepness of curve at IC50. % Inh=[(median Max−x/median Max−median Min)]·100 IC50: concentration of compound that reduces a given response (ligand binding, enzyme response) by 50%. IC50 relative: concentration giving half the compound's maximum response.
(§3) For IC50 values shown in Table A, “A” means IC50<0.5 μM; “B” means IC50 ranging between 0.5 μM and 1.0 μM; “C” means IC50 ranging between 1 μM and 5 μM; “D” means IC50 ranging between 5 μM and 10 μM; “E” means IC50>10 μM.

Assay [2] concerns the target T2, human full length PIK3KA H1047R mutant (p110α/p85α complex) (Homo sapiens, UniProt P42336, H1047R).
T2 construct: Recombinant, catalytically active human full length PIK3KA Wild-type and H1047R mutant were purchased as 1:1 complex; 6xHis (N); purchased EMD Millipore Sigma 14-792M
As to the kind of experiment: PI3K-alpha kinase (PIK3CA) biochemical activity, H1047R mutant, ADP-Glo. The following applies: PI3K-α (PIK3CA) biochemical, H1047R mutant.
Excerpt: as §1, §2, §3
In general terms: ADP-Glo first removes unused ATP, then detects ADP through luciferase.

The mark [3] stands for this setting: PIP2diC8 lipid substrate (footnote 1).

T2 sequence (P42336 whole entry H1047R): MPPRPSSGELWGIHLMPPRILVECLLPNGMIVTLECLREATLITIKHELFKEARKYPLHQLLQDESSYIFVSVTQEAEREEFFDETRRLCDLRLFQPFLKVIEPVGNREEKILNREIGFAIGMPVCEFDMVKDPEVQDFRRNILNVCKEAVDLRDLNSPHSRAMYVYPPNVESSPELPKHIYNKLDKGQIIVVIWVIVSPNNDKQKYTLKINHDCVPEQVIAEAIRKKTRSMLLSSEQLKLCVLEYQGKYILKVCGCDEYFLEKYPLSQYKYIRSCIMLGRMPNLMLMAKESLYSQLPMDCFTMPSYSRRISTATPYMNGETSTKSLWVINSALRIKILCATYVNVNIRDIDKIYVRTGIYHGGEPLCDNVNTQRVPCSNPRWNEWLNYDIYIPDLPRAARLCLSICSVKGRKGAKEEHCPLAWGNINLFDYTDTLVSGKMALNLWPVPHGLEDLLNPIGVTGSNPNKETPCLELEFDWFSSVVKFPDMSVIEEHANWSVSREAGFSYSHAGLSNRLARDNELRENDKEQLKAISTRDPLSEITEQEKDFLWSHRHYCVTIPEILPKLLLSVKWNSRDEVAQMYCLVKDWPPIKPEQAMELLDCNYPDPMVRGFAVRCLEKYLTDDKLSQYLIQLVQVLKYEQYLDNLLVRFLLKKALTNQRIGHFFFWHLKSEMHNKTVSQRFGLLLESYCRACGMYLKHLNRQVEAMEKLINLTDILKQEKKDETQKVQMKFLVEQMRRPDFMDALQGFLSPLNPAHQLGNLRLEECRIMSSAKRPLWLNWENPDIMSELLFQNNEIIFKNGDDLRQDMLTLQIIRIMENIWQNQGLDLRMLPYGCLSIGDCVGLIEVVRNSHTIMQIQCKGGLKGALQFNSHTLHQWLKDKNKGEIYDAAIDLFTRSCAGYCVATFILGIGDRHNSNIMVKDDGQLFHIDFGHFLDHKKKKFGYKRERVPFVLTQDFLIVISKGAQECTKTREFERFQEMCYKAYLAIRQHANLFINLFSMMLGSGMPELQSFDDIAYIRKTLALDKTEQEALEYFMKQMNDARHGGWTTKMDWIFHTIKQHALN
T2 sequence (P27986 whole entry partner): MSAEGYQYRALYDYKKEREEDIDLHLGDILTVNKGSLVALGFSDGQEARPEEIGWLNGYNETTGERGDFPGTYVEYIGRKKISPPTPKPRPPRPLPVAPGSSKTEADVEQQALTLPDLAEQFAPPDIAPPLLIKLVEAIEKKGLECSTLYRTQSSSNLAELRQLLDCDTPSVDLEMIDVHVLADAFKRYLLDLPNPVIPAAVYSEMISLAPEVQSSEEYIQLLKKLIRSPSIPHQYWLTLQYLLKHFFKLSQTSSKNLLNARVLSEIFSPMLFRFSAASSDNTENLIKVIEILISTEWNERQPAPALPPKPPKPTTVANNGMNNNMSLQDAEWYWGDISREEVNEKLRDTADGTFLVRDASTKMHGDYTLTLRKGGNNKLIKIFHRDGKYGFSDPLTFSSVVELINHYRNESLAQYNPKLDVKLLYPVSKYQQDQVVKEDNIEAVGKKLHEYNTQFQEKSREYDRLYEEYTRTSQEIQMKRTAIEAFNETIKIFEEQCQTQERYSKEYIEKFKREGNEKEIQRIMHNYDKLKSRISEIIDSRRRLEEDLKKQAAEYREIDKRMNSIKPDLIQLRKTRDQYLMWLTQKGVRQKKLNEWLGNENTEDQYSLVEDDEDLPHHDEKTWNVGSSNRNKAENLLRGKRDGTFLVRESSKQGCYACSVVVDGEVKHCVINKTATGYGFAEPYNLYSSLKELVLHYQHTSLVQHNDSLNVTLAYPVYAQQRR

As to `Cc1cc(C(C)Nc2cccc(F)c2C(=O)O)c2oc(-c3ccccc3F)c(C)c(=O)c2c1` (single isomer, unassigned; isomer 1) [Example 103, 2-Fluoro-6-[1-[2-(2-fluorophenyl)-3,6-dimethyl-4-oxo-chromen-8-yl]ethylamino]benzoic acid, Isomer 1], the IC50 in assay [1] (Soy PI lipid substrate) and in assay [2] (Soy PI lipid substrate) was < 0.5 µM throughout.

Regarding `Cc1cc(C(C)Nc2ccccc2C(=O)O)c2oc(-c3ccc(C4(C#N)CC4)cc3)cc(=O)c2c1` (stereo not shown) [Example 7, 2-[1-[2-[4-(1-Cyanocyclopropyl)-phenyl]-6-methyl-4-oxo-chromen-8-yl]ethylamino]benzoic acid], the IC50 (usually the concentration needed to halve the response being measured) in assay [1] (setting [3]) was 0.5 to 1 µM; in assay [2] (setting [3]), < 0.5 µM.

For `C[C@@H](Nc1ccccc1C(=O)O)c1cc(F)cc2c(=O)cc(-c3ccccc3)oc12` [Example 24, 2-[[(1R)-1-(6-Fluoro-4-oxo-2-phenyl-chromen-8-yl)ethyl]amino]benzoic acid], the IC50 is 1 to 5 µM in assay [1] (Soy PI lipid substrate) and < 0.5 µM in assay [2] (Soy PI lipid substrate).

On to `Cc1cc(C(C)Nc2ccccc2C(=O)O)c2oc(-c3ccccc3)c(C#N)c(=O)c2c1` (single isomer, unassigned; isomer 1) [Example 61, 2-[1-(3-Cyano-6-methyl-4-oxo-2-phenyl-chromen-8-yl)ethylamino]benzoic acid, Isomer 1], for which the IC50 in assay [1] (Soy PI lipid substrate) and in assay [2] (Soy PI lipid substrate) was > 10 µM each time.

With `Cc1c(-c2cccc(C#N)c2)oc2c([C@@H](C)Nc3ccc(Cl)nc3C(=O)O)cc(C(F)(F)F)cc2c1=O` [Example 100, 6-Chloro-3-[[(1R)-1-[2-(3-cyanophenyl)-3-methyl-4-oxo-6-(trifluoromethyl)-chromen-8-yl]ethyl]amino]pyridine-2-carboxylic acid], the IC50 in assay [1] (Soy PI lipid substrate) was 0.5 to 1 µM; in assay [2] (Soy PI lipid substrate) it was < 0.5 µM.

On to `Cc1cc([C@@H](C)Nc2ccc(Br)cc2C(=O)O)c2oc(-c3ccccc3)c(C)c(=O)c2c1` [Example 77, 5-Bromo-2-[[(1R)-1-(3,6-dimethyl-4-oxo-2-phenyl-chromen-8-yl)ethyl]amino]benzoic acid], for which the concentration for half-maximal inhibition (IC50) in assay [1] (Soy PI lipid substrate) is 1 to 5 µM; in assay [2] (Soy PI lipid substrate), < 0.5 µM.

On to `Cc1cc(C(C)Nc2sc(C)nc2C(=O)O)c2oc(-c3ccccc3)cc(=O)c2c1` (stereo not shown) [Example 23, 2-Methyl-5-[1-(6-methyl-4-oxo-2-phenyl-chromen-8-yl)ethylamino]-thiazole-4-carboxylic acid 2,2,2-trifluoroacetic acid], for which the IC50 in assay [1] (Soy PI lipid substrate) was 5 to 10 µM; in assay [2] (Soy PI lipid substrate), < 0.5 µM.

Consider `CC(Nc1ccccc1C(=O)O)c1cc(C(F)(F)F)cc2c(=O)cc(-c3ccccc3)oc12` (single isomer, unassigned; isomer 1) [Example 86, 2-[1-[4-Oxo-2-phenyl-6-(trifluoromethyl)-chromen-8-yl]ethylamino]benzoic acid, Isomer 1], for which the IC50 in assay [1] (Soy PI lipid substrate) is 5 to 10 µM; in assay [2] (Soy PI lipid substrate), > 10 µM.

Consider `Cc1cc([C@@H](C)Nc2ccc(Cl)nc2C(=O)O)c2oc(-c3ccccc3)cc(=O)c2c1` [Example 2, 6-Chloro-3-[[(1R)-1-(6-methyl-4-oxo-2-phenyl-chromen-8-yl)ethyl]amino]pyridine-2-carboxylic acid], for which the IC50 in assay [1] (Soy PI lipid substrate) and in assay [2] (Soy PI lipid substrate) was < 0.5 µM in each case.

For the molecule `Cc1cc(C(C)Nc2cccc(F)c2C(=O)O)c2oc(-c3ccccc3F)cc(=O)c2c1` (stereo not shown) [Example 97, 2-Fluoro-6-[1-[2-(2-fluorophenyl)-6-methyl-4-oxo-chromen-8-yl]ethylamino]benzoic acid 2,2,2-trifluoroacetic acid], the values for the IC50 in assay [1] (Soy PI lipid substrate) and in assay [2] (Soy PI lipid substrate) were 1 to 5 µM and < 0.5 µM, respectively.

Turning to `Cc1cc([C@@H](C)Nc2ccccc2C(=O)O)c2oc(-c3ccccc3F)cc(=O)c2c1` [Example 11, 2-[[(1R)-1-[2-(2-Fluorophenyl)-6-methyl-4-oxo-chromen-8-yl]ethyl]amino]benzoic acid], the IC50 is 1 to 5 µM in assay [1] (Soy PI lipid substrate) and < 0.5 µM in assay [2] (Soy PI lipid substrate).

For `COc1ccc(NC(C)c2cc(C)cc3c(=O)c(C)c(-c4ccccc4)oc23)c(C(=O)O)n1` (stereo not shown) [Example 89, 3-[1-(3,6-Dimethyl-4-oxo-2-phenyl-chromen-8-yl)ethylamino]-6-methoxy-pyridine-2-carboxylic acid 2,2,2-trifluoroacetic acid], the IC50 in assay [1] (Soy PI lipid substrate) was 1 to 5 µM; in assay [2] (Soy PI lipid substrate) it was < 0.5 µM.

For the molecule `C[C@@H](Nc1ccc(Cl)nc1C(=O)O)c1cc(C(F)(F)F)cc2c(=O)cc(-c3ccccc3)oc12` [Example 82, 6-Chloro-3-[[(1R)-1-[4-oxo-2-phenyl-6-(trifluoromethyl)-chromen-8-yl]ethyl]amino]pyridine-2-carboxylic acid], the concentration for half-maximal inhibition (IC50) in assay [1] (Soy PI lipid substrate) was 1 to 5 µM; in assay [2] (Soy PI lipid substrate), < 0.5 µM.

In the case of `Cc1cc([C@@H](C)Nc2c(Cl)ccc(F)c2C(=O)O)c2oc(-c3ccccc3)c(C)c(=O)c2c1` [Example 65, 3-Chloro-2-[[(1R)-1-(3,6-dimethyl-4-oxo-2-phenyl-chromen-8-yl)ethyl]amino]-6-fluoro-benzoic acid], the IC50 in assay [1] (Soy PI lipid substrate) and in assay [2] (Soy PI lipid substrate) was > 10 µM in each case.

As for `Cc1cc([C@@H](C)Nc2ccccc2C(=O)O)c2oc(-c3cccc(F)c3)cc(=O)c2c1` [Example 18, 2-[[(1R)-1-[2-(3-Fluorophenyl)-6-methyl-4-oxo-chromen-8-yl]ethyl]amino]benzoic acid], the IC50 in assay [1] (setting [3]) and in assay [2] (setting [3]) was < 0.5 µM each time.

As to `Cc1cc(C(C)Nc2ccccc2C(=O)O)c2oc(-c3ccc(C(=O)N(C)C)cc3)cc(=O)c2c1` (single isomer, unassigned; isomer 1) [Example 49, 2-[1-[2-[4-(Dimethylcarbamoyl)-phenyl]-6-methyl-4-oxo-chromen-8-yl]ethylamino]benzoic acid, Isomer 1], the IC50 in assay [1] (Soy PI lipid substrate) is 5 to 10 µM; in assay [2] (Soy PI lipid substrate), < 0.5 µM.

For the molecule `Cc1cc([C@@H](C)Nc2ccccc2C(=O)O)c2oc(-c3ccccc3C#N)c(C)c(=O)c2c1` [Example 34, 2-[[(1R)-1-[2-(2-Cyanophenyl)-3,6-dimethyl-4-oxo-chromen-8-yl]ethyl]amino]benzoic acid], the IC50 is > 10 µM in assay [1] (Soy PI lipid substrate) and < 0.5 µM in assay [2] (Soy PI lipid substrate).

Take `Cc1cc(C(C)Nc2ccccc2C(=O)O)c2oc(-c3ccc(C4(C)CC4)cc3)cc(=O)c2c1` (stereo not shown) [Example 12, 2-[1-[6-Methyl-2-[4-(1-methylcyclopropyl)-phenyl]-4-oxo-chromen-8-yl]ethylamino]benzoic acid 2,2,2-trifluoroacetic acid]: the half-inhibitory concentration (IC50) in assay [1] (Soy PI lipid substrate) is 5 to 10 µM; in assay [2] (Soy PI lipid substrate), 0.5 to 1 µM.

`CC(Nc1ccccc1C(=O)O)c1cc(C(F)(F)F)cc2c(=O)cc(-c3ccccc3)oc12` (single isomer, unassigned; isomer 2) [Example 87, 2-[1-[4-Oxo-2-phenyl-6-(trifluoromethyl)-chromen-8-yl]ethylamino]benzoic acid, Isomer 2]: the half-inhibitory concentration (IC50) was 5 to 10 µM in assay [1] (Soy PI lipid substrate) and < 0.5 µM in assay [2] (Soy PI lipid substrate).

Take `Cc1cc(C(C)Nc2ccccc2C(=O)O)c2oc(-c3ccc(C(=O)N(C)C)cc3)cc(=O)c2c1` (stereo not shown) [Example 8, 2-[1-[2-[4-(Dimethylcarbamoyl)-phenyl]-6-methyl-4-oxo-chromen-8-yl]ethylamino]benzoic acid 2,2,2-trifluoroacetic acid]: the IC50 was > 10 µM in assay [1] (Soy PI lipid substrate) and < 0.5 µM in assay [2] (Soy PI lipid substrate).
